Data on ten compounds can be found in patent publication US11643385B2, “Polymorphic forms of RAD1901-2HCl” (RADIUS PHARMACEUTICALS, INC., priority 2018, dated 2023).

Each structure is given as a SMILES string. Marks after values point to notes of the source that are not given here.

A short description of the series: Solubility assessment and polymorph screen on Sample 1 (Form 1) of RAD1901-2HCl in 24 solvent systems. Format: physicochemical. As to conditions: for Solubility observation at 10 vol.: 25 mg Sample 1, 10 vol. solvent (solvent per sample ID), stirred 25° C., shaken 50° C.; for Solubility observation at 20 vol.: 20 vol. solvent (solvent per sample ID); for Solubility observation at 40 vol.: 40 vol. solvent (solvent per sample ID); for Solubility observation at 60 vol.: 60 vol. solvent (solvent per sample ID); for XRPD of recovered solid (form): solid recovered after maturation, cooling or evaporation. Here is the method: Solubility assessment was carried out on the Sample 1 of RAD1901-2HCl (majorly Form 1 shown by XRPD) in 24 solvent systems in HPLC vials (sample IDs: A1 to A24). RAD1901-2HCl (25 mg) was treated with increasing volumes of solvent until the material fully dissolved or until a maximum of 60 vol had been used (Table 13).
After each addition of solvent, the system was stirred for 5 to 10 minutes at 25° C., then shaken at 50° C. for 5 to 10 minutes, and observations made. Samples were allowed to stand at room temperature for 5 min before the addition of a new aliquot of solvent. After the assessment was completed, the suspensions obtained were matured (maturation) and the clear solutions were cooled (cooling) and slowly evaporated (evaporation) as described below. All solids recovered from maturation, cooling and evaporation experiments were analyzed by high resolution XRPD.
The suspensions obtained during the solubility assessment were matured by shaken in a maturation chamber between 50° C. and RT (8 hr per cycle) for up to 5 days. Then the mixture was allowed to stand at room temperature for 10 minutes. The resulting solids were filtered and air dried and analyzed by XRPD. The clear solutions obtained during maturation were evaporated in ambient conditions and the resulting residues were analyzed by XRPD.
The clear solutions obtained during the course of the solubility assessment were cooled on a Polar Bear device from 50° C. to 5° C. at 0.1° C./min. Solids obtained upon cooling were recovered from the vials, air dried and analyzed by XRPD. If no solid was obtained, the solutions were evaporated slowly through a needle inserted into the septum cap of the vial until a solid appeared at ambient conditions and the resulting solids were filtered, air dried and analyzed by XRPD.

With `CCNCCc1ccc(CN(CC)c2cc(OC)ccc2[C@@H]2CCc3cc(O)ccc3C2)cc1.Cl.Cl` [Form A1], the “Solubility observation at 10 vol.” value was “X (X = suspension)”, the “Solubility observation at 20 vol.” value is “X (X = suspension)”, the “Solubility observation at 40 vol.” value is on record as “X (X = suspension)” and the “Solubility observation at 60 vol.” value is reported as “X (X = suspension)”. Further, the “XRPD of recovered solid (form)” value is “Form 1”.

As to `CCNCCc1ccc(CN(CC)c2cc(OC)ccc2[C@@H]2CCc3cc(O)ccc3C2)cc1.Cl.Cl` [Form A2], the “Solubility observation at 10 vol.” value is given as “X (X = suspension)”, the “Solubility observation at 20 vol.” value is listed as “X (X = suspension)”, the “Solubility observation at 40 vol.” value is “X (X = suspension)” and the “Solubility observation at 60 vol.” value is listed as “X (X = suspension)”. The “XRPD of recovered solid (form)” value is given as “Form 1”.

`CCNCCc1ccc(CN(CC)c2cc(OC)ccc2[C@@H]2CCc3cc(O)ccc3C2)cc1.Cl.Cl` [Form A3]: the “Solubility observation at 10 vol.” value is “X (X = suspension)”, the “Solubility observation at 20 vol.” value is reported as “X (X = suspension)”, the “Solubility observation at 40 vol.” value is reported as “X (X = suspension)” and the “Solubility observation at 60 vol.” value is on record as “X (X = suspension)”. Also, the “XRPD of recovered solid (form)” value is “Form 1”.

Regarding `CCNCCc1ccc(CN(CC)c2cc(OC)ccc2[C@@H]2CCc3cc(O)ccc3C2)cc1.Cl.Cl` [Form A4], the “Solubility observation at 10 vol.” value is recorded as “X (X = suspension)”, the “Solubility observation at 20 vol.” value was “X (X = suspension)”, the “Solubility observation at 40 vol.” value is on record as “X (X = suspension)” and the “Solubility observation at 60 vol.” value was “X (X = suspension)”. In addition, the “XRPD of recovered solid (form)” value is on record as “Form 1”.

As for `CCNCCc1ccc(CN(CC)c2cc(OC)ccc2[C@@H]2CCc3cc(O)ccc3C2)cc1.Cl.Cl` [Form A5], the “Solubility observation at 10 vol.” value is listed as “X (X = suspension)”, the “Solubility observation at 20 vol.” value was “X (X = suspension)”, the “Solubility observation at 40 vol.” value is on record as “X (X = suspension)” and the “Solubility observation at 60 vol.” value is “X (X = suspension)”. The “XRPD of recovered solid (form)” value was “Form 1”.

Consider `CCNCCc1ccc(CN(CC)c2cc(OC)ccc2[C@@H]2CCc3cc(O)ccc3C2)cc1.Cl.Cl` [Form A6], for which the “Solubility observation at 10 vol.” value was “X (X = suspension)”, the “Solubility observation at 20 vol.” value is “X (X = suspension)”, the “Solubility observation at 40 vol.” value is “X (X = suspension)” and the “Solubility observation at 60 vol.” value was “X (X = suspension)”. For the same compound, the “XRPD of recovered solid (form)” value was “Form 3*”.

With `CCNCCc1ccc(CN(CC)c2cc(OC)ccc2[C@@H]2CCc3cc(O)ccc3C2)cc1.Cl.Cl` [Form A7], the “Solubility observation at 10 vol.” value was “X (X = suspension)”, the “Solubility observation at 20 vol.” value is recorded as “X (X = suspension)”, the “Solubility observation at 40 vol.” value was “X (X = suspension)” and the “Solubility observation at 60 vol.” value was “X (X = suspension)”. Moreover, the “XRPD of recovered solid (form)” value is “Form 1*”.

Turning to `CCNCCc1ccc(CN(CC)c2cc(OC)ccc2[C@@H]2CCc3cc(O)ccc3C2)cc1.Cl.Cl` [Form A8], the “Solubility observation at 10 vol.” value is on record as “X (X = suspension)”, the “Solubility observation at 20 vol.” value is “X (X = suspension)”, the “Solubility observation at 40 vol.” value is given as “X (X = suspension)” and the “Solubility observation at 60 vol.” value is on record as “X (X = suspension)”. The “XRPD of recovered solid (form)” value is “Form 1”.

Turning to `CCNCCc1ccc(CN(CC)c2cc(OC)ccc2[C@@H]2CCc3cc(O)ccc3C2)cc1.Cl.Cl` [Form A10], the “Solubility observation at 10 vol.” value is listed as “X (X = suspension)”, the “Solubility observation at 20 vol.” value is recorded as “X (X = suspension)”, the “Solubility observation at 40 vol.” value is “X (X = suspension)” and the “Solubility observation at 60 vol.” value was “X (X = suspension)”. Further, the “XRPD of recovered solid (form)” value was “Form 1”.

In the case of `CCNCCc1ccc(CN(CC)c2cc(OC)ccc2[C@@H]2CCc3cc(O)ccc3C2)cc1.Cl.Cl` [Form A11], the “Solubility observation at 10 vol.” value is on record as “S (S = solution)”. Further, the “Observation after Cooled to 5° C.” value (clear solutions cooled 50° C. to 5° C. at 0.1° C./min) is given as “S”. Moreover, the “Observation after Evaporation” value (slow evaporation at ambient conditions) is recorded as “S”.
